Key:
PEDV-GFP [1] = assay: Co-incubation antiviral assay, PEDV-GFP MOI=0.3, Vero cells (fluorescence microscopy and flow cytometry); assay type: cell-based, Porcine epidemic diarrhea virus
Procedure: (§1) In order to determine the effect of AMPs on the infectivity of PEDV, Vero cells (5 × 10^5 per well) were seeded in 12-well plates and cultured overnight at 37 °C, 5% CO2. In a co-incubation of virus and AMPs experiments (Fig. 2A), the mixture of AMPs (0–10 µM) and PEDV-GFP (MOI= 0.3) in a 1 mL volume of DMEM (P/S + 10% FCS) was added to the cells and incubated at 37 °C. After 2 h, the supernatant was replaced with fresh DMEM (P/S + 10% FCS) and incubated for 24 h. Subsequently, the cells were washed 2 times with flow cytometry buffer (500 mL PBS+ 10 mL FCS+ 250 µL of 10% NaN3) and were imaged with an EVOS M5000 Imaging System for semi-quantitative determination of infectivity. Eventually, cells were carefully detached by 2.5% trypsin, stained with ViaKrome 808 fixable viability dye (1:1000), and incubated for 30 min at 4 °C. Following washing, the cells were fixed using 50 µL of 4% PFA for 10 min, and a minimum of 1 × 10^5 cells were acquired using the CytoFLEX LX Flow Cytometer (FC)(Beckman Coulter, USA). Data was analyzed using FlowJo software v.10.6 (Flowjo LCC, Ashland, OR, USA).
Fig. 2 Effect of AMPs on the infectivity of PEDV (MOI=0.3). A) Experimental set-up of the ‘co-incubation assay’; Vero cells were subjected to 2 h exposure to a combination of AMPs and PEDV-GFP. Afterward, the supernatant was replaced, and the cells were incubated for an additional 24 h B) Fluorescent microscopy (20 × magnification) was performed to visualize the fluorescence signal of GFP in the presence of 1, 5, and 10 µM AMPs. The cell-only sample consists exclusively of cells while the no-peptide sample contains only PEDV-GFP, with no peptides present.
Fig. 3 Antiviral activity of AMPs as determined by flow cytometry (FC). A) The percentage of GFP-positive cells following a 2 h incubation with a combination of PEDV and AMPs. […] The values reported here depict the average ± SD derived from three independent experiments performed in duplicate. * p < 0.05; ** p < 0.01.

PEDV [2] = assay: Peptide-virus interaction assay with Capto Core 700 beads; assay type: cell-based, Porcine epidemic diarrhea virus; settings: Fig. 8
Procedure: In order to determine if CATH-B1 and LL-37 physically interact with PEDV, Capto Core 700 beads (GE Healthcare Life Sciences, Chicago, IL, USA) were used to selectively eliminate unbound AMPs. PEDV were pre-incubated with or without CATH-B1/LL-37 in Opti-MEM medium, and Capto Core 700 beads were added, followed by a 1 h incubation at 4 °C while slowly rotating. After centrifugation, supernatants were collected and applied to the cells. To make sure the AMP was removed effectively, we tested samples with peptides but no virus using the same process. The collected supernatants were used to inoculate cells, and the number of infected cells was determined using the described method.
Fig. 8 Interactions between CATH-B1 and LL-37 with PEDV. CATH-B1/LL-37 were pre-incubated with the virus, and subsequently, the peptide and virus were separated using Capto Core beads. The supernatant containing the separated virus was then employed to infect Vero cells. […] The data is presented as the mean ± SEM of three independent experiments in duplicate, each with triplicate samples. **** p < 0.0001.

PEDV-GFP [3] = assay: Co-incubation antiviral assay of the extended AMP panel and of FL LL-37; assay type: cell-based, Porcine epidemic diarrhea virus; settings: co-incubation with PEDV-GFP, 1 and 5 µM, 3 h, FC; two independent experiments in duplicate; Fig. 5
Procedure: as §1
This extended panel of AMPs encompassed chicken-derived peptides (D-CATH-2, l-CATH-2), mouse-derived peptide (CRAMP), horse-derived peptides (eCATH-1, eCATH-3), parrot-derived peptides (ER2, ER3, AG3), and synthetic peptides (CR165, CR174), all of which were readily accessible within our laboratory. As previously described, these AMPs were co-incubated with PEDV.
Fig. 5 Antiviral effects of a diverse group of AMPs on PEDV infection. Vero cells were incubated for 3 h with a combination of PEDV-GFP and AMPs, as described previously. FC was utilized to assess the inhibitory impact of AMPs.
Figure S4. The antiviral activity of FL LL-37 (fluorogenic LL-37 ) and unlabeled LL-37. Peptides were co-incubated at 1 and 5 µM with PEDV and added to Vero cells for 3 h, followed by FC analysis to examine the infectivity.

PEDV [4] = assay: Transmission electron microscopy of peptide-treated virus; design: species or system Porcine epidemic diarrhea virus; settings: PEDV treated with 10 µM peptide, negative stain, Fig. 9
Procedure: PEDV was treated with CATH-B1, LL-37, PMAP-23, and PMAP-36 for one minute at 37 °C. Subsequently, 10 µL of the sample was placed onto a freshly carbon-coated copper grid. The grids were washed 3 times with PBS and then fixed with 1% glutaraldehyde (Sigma-Aldrich, St. Louis, MO, USA) in PBS for 10 min. Following this fixation, the grids were rinsed 2 times with PBS and 4 times with MilliQ water. They were stained for 5 min in Uranyl Acetate (pH 7) then briefly washed with methylcellulose/uranyl acetate (pH 4) and incubated for 5 min on ice. Finally, the grids were looped out of the solution and air-dried. The samples were subsequently examined in a JEM1010 (JEOL) equipped with a Veleta 2k × 2k CCD camera (EMSIS, Munster, Germany).
Fig. 9 The effect of AMPs on the morphology of the virus. PEDV (MOI=0.3), which was pre-incubated with peptides. TEM images were taken of PEDV alone (A–D), PEDV treated with 10 µM LL-37 (E-H), PEDV treated with 10 µM CATH-B1 (I-L), PEDV treated with 10 µM PMAP-23 (M, N), and PEDV treated with 10 µM PMAP-36 (O, P). […] Micrographs were captured with a pixel size of 0,5 nm and analyzed visually using ImageJ. The micrographs are representative of observations from three independent experiments. Scale bars represent 100 nm.

## LLGDFFRKSKEKIGKEFKRIVQRIKDFLRNLVPRTES [LL-37, human cathelicidin antimicrobial peptide, 37 residues]
PEDV-GFP [1]; 10 µM peptide, PEDV-GFP MOI=0.3, 2 h co-incubation then 24 h, no-peptide control approximately 35%, three independent experiments in duplicate, Fig. 3A
  percentage of GFP-positive cells (FC), co-incubation: 1–2%
PEDV-GFP [1]; PEDV-GFP MOI=0.3, 5 and 10 µM peptide, 2 h co-incubation then 24 h, compared to control without peptide, Fig. 2B
  infected cells by fluorescent microscopy, co-incubation: reduced numbers of infected cells
PEDV [2]; Capto Core 700 beads, Vero cells
  virus infectivity, peptide pre-incubated with beads before PEDV introduction: minimal effects on virus infectivity
PEDV [2]; no Capto Core 700 beads, Vero cells
  virus infectivity, peptide incubated with PEDV without beads: a decrease in virus infectivity
PEDV [2]; peptide + PEDV, then Capto Core 700 beads 1 h at 4 °C, supernatant applied to Vero cells
  antiviral activity when peptide is combined with virus and beads: lost its inhibitory effect
PEDV-GFP [3]
  prevention of PEDV-GFP entry into Vero cells, extended AMP panel, in words: strong antiviral activity
PEDV [4]
  virus aggregation (TEM): in some cases, extensive virus aggregation
PEDV [4]; one minute at 37 °C
  effect on virus morphology / membrane (TEM): significant membrane disruption

— paper PMC11607671, “Antiviral activity of cathelicidins against porcine epidemic diarrhea virus (PEDV): Mechanisms, and efficacy” (Virus Research, 2024)
